Read-outs that look alike come from different tables or passages of the source. Where a SMILES comes first, the peptide text is derived from it. Bridges are numbered along the chain shown (N, C = ends). Where no end group is shown, it is not given here.
Test system: proteases in Pelophylax esculentus skin secretion
Assay type: in vitro ADME
Settings: for Proteoforms, %: sum of all proteolytic forms; for Proteoforms, % / Intact, % / Oxidized, %: LC-HRMS; for Intact, %: one frog per sample; for Efficiency of the reagent in deactivating proteases in amphibian skin secretions: comparison of HCl 1%, CH3OH, HCOOH 1%, PMSF 0.1 and 1.0 mM by preservation of nine intact peptides; for Oxidized, %: Met oxidized to methionine sulfoxide
Description: The inhibitory capacity of methanol and hydrochloric and formic acids, as well as PMSF at the minimum and maximum concentrations traditionally used in proteomics (0.1–1.0 mM), was compared via mass spectrometric monitoring of intact and proteolytic forms of nine peptides in five samples of Pelophylax esculentus secretions (samples 1–5).
Table 2 presents quantitative data for each of the nine peptides in Table 1, showing the percentage ratio of the intact (original) form of the peptide, the oxidized form (in the presence of methionine in the sequence), and the resulting proteolytic forms: products of the action of the remaining non-deactivated proteases. The full list of the detected proteolytic forms is included into the supporting material. The presence of one or another proteolytic form for each peptide in each of the five samples was determined by observing the coincidence of their exact experimental mass with the calculated one (within 0.5 ppm according to the mass spectra), as well as the coincidence of their sequences (tandem mass spectra data).
When calculating the data in Table 2, the total amount of intensities of all its formed forms in the mass spectra was taken as 100% for each peptide. To calculate the content in each of the samples of the intact, oxidized (if any), or proteolytic form of each of the nine peptides, the sum of the intensities of the chromatographic peaks of its multicharged ions, exactly corresponding to the values of the polyprotonated molecules of each of the forms, was used. The line “Proteoforms, %” took into account the sum of all proteolytic forms of a particular peptide for each of the five samples. The values of the intensities of each of the forms (intact, oxidized, and proteolytic) obtained in this way were summed up and, in relation to their resulting sum, the percentage content of each of the three forms in Table 2 was calculated for each of the five samples with different reagents.
The skin secretions of five sexually mature female specimens of the same size of Pelophylax esculentus, caught within the Moscow city limits, were obtained via mild electro-stimulation of the skin glands using a laboratory electro-stimulator [15, 51]. The “milking” parameters were as follows: signal frequency 50 Hz, pulse duration 3 ms, voltage 12 V, total stimulation time 40 s. The secretion was washed off with deionized water into separate containers, to which the following reagents were immediately added individually: —HCl to final concentration 1% (sample 1); —CH3OH (sample 2); —HCOOH to final concentration 1% (sample 3); —0.1 mM PMSF (sample 4 in DMSO); —1.0 mM PMSF (sample 5 in DMSO). All samples were centrifuged for 15 min at 3 000 rpm, filtered through removable membrane filters (PTFE 0.45 μm), and lyophilized. The storage temperature was −26 °C. All five individuals were immediately returned to their place of capture after the procedure.
Mass spectra were obtained on an Orbitrap ID-X high-resolution mass spectrometer (Thermo Scientific, Waltham, MA, USA) coupled to an LC-30 Nexera liquid chromatograph (Shimadzu, Kyoto, Japan) in LC-HRMS mode. An HPLC system consisted of two LC-30AD chromatographic pumps, a DGU-5A vacuum degasser, a SIL-30AC autosampler, an STO-20A column thermostat, and a CBM-20A system controller. The components of the secretions were separated on an XDB-C18 column (Agilent, Santa Clara, CA, USA) with a length of 100 mm and phase particle size of 1.8 μm. Gradient chromatography was performed using the following solutions: A—0.1% formic acid solution in deionized water (Milli-Q, Millipore, Molsheim, France); B—0.1% formic acid solution in acetonitrile containing 2% deionized water. All lyophilized samples were dissolved in phase B prior to the analysis. Injection volume was set to 0.1 µL. […]

[1] = sample 1: HCl final concentration 1%, all forms = 100%
[2] = sample 1: aqueous P. esculentus skin secretion, HCl added to final concentration 1%, sum of intensities of all forms of the peptide = 100%
[3] = sample 2: CH3OH, all forms = 100%
[4] = sample 2: aqueous P. esculentus skin secretion with CH3OH added, all forms = 100%
[5] = sample 3: HCOOH final concentration 1%, all forms = 100%
[6] = sample 3: aqueous P. esculentus skin secretion, HCOOH added to final concentration 1%, all forms = 100%
[7] = sample 4: aqueous P. esculentus skin secretion, PMSF 0.1 mM (in DMSO), all forms = 100%
[8] = sample 5: PMSF 1.0 mM (in DMSO), all forms = 100%
[9] = sample 5: aqueous P. esculentus skin secretion, PMSF 1.0 mM (in DMSO), all forms = 100%
[10] = sample 4: PMSF 0.1 mM (in DMSO), all forms = 100%

CC[C@H](C)[C@H](NC(=O)[C@@H](N)C(C)C)C(=O)N1CCC[C@H]1C(=O)N[C@@H](Cc1ccccc1)C(=O)N[C@H](C(=O)N[C@@H](C)C(=O)N[C@@H](CO)C(=O)N[C@H](C(=O)N[C@@H](C)C(=O)N[C@@H](C)C(=O)N[C@@H](CCC(=O)O)C(=O)N[C@@H](CCSC)C(=O)N[C@@H](CCSC)C(=O)N[C@@H](CCC(N)=O)C(=O)N[C@@H](Cc1c[nH]cn1)C(=O)N[C@H](C(=O)N[C@@H](Cc1ccc(O)cc1)C(=O)N[C@H]1CSSC[C@@H](C(=O)O)NC(=O)[C@H](CCCNC(=N)N)NC(=O)[C@H](CCCNC(=N)N)NC(=O)[C@H](CO)NC(=O)[C@H](C)NC(=O)[C@H](C)NC1=O)C(C)C)C(C)C)C(C)C [Brev 1Ra, Brevinin 1Ra] (H-VIPFVASVAAEMMQHVYCAASRRC-OH; disulfide 18-24)
Proteoforms, % [1]: 0.75% | Intact, % [2]: 93.51% | Proteoforms, % [3]: 0.60% | Intact, % [4]: 98.27% | Proteoforms, % [5]: 0.30% | Intact, % [6]: 99.51% | Intact, % [7]: 77.80% | Proteoforms, % [8]: 0.53% | Intact, % [9]: 99.47%

CO [Methanol, reference compound]
Efficiency of the reagent in deactivating proteases in amphibian skin secretions: most efficient

O=S(=O)(F)Cc1ccccc1 [PMSF, phenylmethylsulfonyl fluoride, reference compound]
Efficiency of the reagent in deactivating proteases in amphibian skin secretions: ineffective

CC[C@H](C)[C@H](NC(=O)[C@H](CC(N)=O)NC(=O)[C@@H](NC(=O)[C@H](C)N)C(C)C)C(=O)N1CCC[C@H]1C(=O)N[C@@H](Cc1ccccc1)C(=O)N[C@@H](CCCCN)C(=O)N[C@H](C(=O)N[C@@H](CCCCN)C(=O)N[C@@H](Cc1ccccc1)C(=O)N[C@@H](CCCNC(=N)N)C(=O)N[C@H]1CSSC[C@@H](C(=O)O)NC(=O)[C@H](Cc2ccccc2)NC(=O)[C@H](C)NC(=O)[C@H](C)NC(=O)[C@H](CCCCN)NC1=O)C(C)C [Ranat 2R, Ranatuerin 2R] (H-AVNIPFKVKFRCKAAFC-OH; disulfide 12-17)
Proteoforms, % [1]: 14.79% | Intact, % [2]: 85.21% | Proteoforms, % [3]: proteolytic fragments were not recorded | Intact, % [4]: 100% | Proteoforms, % [5]: 34.99% | Intact, % [6]: 65.01% | Proteoforms, % [10]: proteolytic fragments were not recorded | Proteoforms, % [8]: proteolytic fragments were not recorded | Intact, % [9]: 100%

FFPAFLKVAAKVVPSXXCSITKKC-OH (disulfide) [Brev 1LE, Brevinin 1LE, natural disulfide skin peptide of Pelophylax esculentus, brevinin 1 family, 24 aa]
Proteoforms, % [1]: not a single proteolytic fragment was formed | Intact, % [2]: 100% | Proteoforms, % [3]: not a single proteolytic fragment was formed | Intact, % [4]: 100% | Proteoforms, % [5]: 1.63% | Intact, % [6]: 98.37% | Proteoforms, % [10]: 92.73% | Intact, % [7]: 7.27% | Proteoforms, % [8]: 89.74% | Intact, % [9]: 10.26%

GIFSKLGRKKIKNLLISGLKNVGKEVGMDVVRTGIDIAGCKIKGEC (disulfide 40-46) [Escul 1, Esculentin 1]
Proteoforms, % [1]: 51.77% | Intact, % [2]: 38.61% | Proteoforms, % [3]: 20.01% | Intact, % [4]: 79.99% | Proteoforms, % [5]: 16.99% | Intact, % [6]: 72.22% | Proteoforms, % [10]: 94.40% | Intact, % [7]: 3.32% | Proteoforms, % [8]: 91.90% | Intact, % [9]: 8.10%

GXFSKXAGKKXKNLXISGXKSVGKEVGMDVVRTGIDIAGCKIKGEC-OH (disulfide) [Escul 1R, Esculentin 1R, natural disulfide skin peptide of Pelophylax esculentus, esculentin 1 family, 46 aa]
Oxidized, % [1]: 7.45% | Proteoforms, % [1]: 27.69% | Intact, % [2]: 64.86% | Proteoforms, % [3]: 22.15% | Intact, % [4]: 77.85% | Proteoforms, % [5]: 15.59% | Intact, % [6]: 84.41% | Oxidized, % [10]: 0.25% | Proteoforms, % [10]: 97.33% | Intact, % [7]: 2.42% | Proteoforms, % [8]: 99.26% | Intact, % [9]: 0.74%

GXLDSLKNFAKDAAGILLKKASCKLSGQC-OH (disulfide) [Brev 2Ra, Brevinin 2Ra, natural disulfide skin peptide of Pelophylax esculentus, brevinin 2 family, 29 aa]
Proteoforms, % [1]: 1.02% | Intact, % [2]: 98.98% | Proteoforms, % [3]: did not degrade | Intact, % [4]: 100% | Proteoforms, % [5]: 1.30% | Intact, % [6]: 98.70% | Proteoforms, % [10]: 88.21% | Intact, % [7]: 11.80% | Proteoforms, % [8]: 14.01% | Intact, % [9]: 85.99%

GXLDSLKNLAKNAAQILLNKASCKLSGQC-OH (disulfide) [Brev 2Rd, Brevinin 2Rd, natural disulfide skin peptide of Pelophylax esculentus, brevinin 2 family, 29 aa]
Proteoforms, % [1]: 0.39% | Intact, % [2]: 99.61% | Proteoforms, % [3]: did not degrade | Intact, % [4]: 100% | Proteoforms, % [5]: 2.23% | Intact, % [6]: 97.77% | Proteoforms, % [10]: 98.45% | Intact, % [7]: 1.55% | Proteoforms, % [8]: 79.16% | Intact, % [9]: 20.84%

GXLSTLKNVAKTAGKGALQSLLNAASCKLSGQC-OH (disulfide) [Brev 2L, Brevinin 2L, natural disulfide skin peptide of Pelophylax esculentus, brevinin 2 family, 33 aa]
Proteoforms, % [1]: 1.21% | Intact, % [2]: 98.79% | Proteoforms, % [3]: 4.66% | Intact, % [4]: 95.34% | Proteoforms, % [5]: 4.74% | Intact, % [6]: 95.26% | Proteoforms, % [10]: 99.64% | Intact, % [7]: 0.36% | Proteoforms, % [8]: 80.51% | Intact, % [9]: 19.49%

GXWNTXKATGKSA ASNVAVTLLDKAKCK(LV)GEC-OH (disulfide) [Brev 2La, Brevinin 2La, natural disulfide skin peptide of Pelophylax esculentus, brevinin 2 family, 33 aa]
Proteoforms, % [1]: 69.02% | Intact, % [2]: 30.98% | Proteoforms, % [3]: not observed at all | Intact, % [4]: 100% | Proteoforms, % [5]: 4.98% | Intact, % [6]: 95.02% | Proteoforms, % [8]: not observed at all

From article PMC11354720, “Assessing the Efficacy of Protease Inactivation for the Preservation of Bioactive Amphibian Skin Peptides” (International Journal of Molecular Sciences, 2024)
